Patent publication US20030232102A1, “Total glycosides of paeony, method to prepare the same and uses thereof” (priority 2001, published 2003)

Test system: patients with rheumatoid arthritis
Assay: Phase II clinical study in rheumatoid arthritis: effectiveness (symptoms, physical examination, comprehensive evaluation)
Assay type: in vivo, human
Description: It was a multiple-centered, randomized, parallel, positive controlled Phrase II clinical study.
All clinical studies except the above mentioned 120 cases were conducted in a single-blind condition.
1) Age 18˜65, male or female who agreed to the investigational treatment for 12 weeks to 6 months. History of rheumatoid arthritis was within 3 years.
2) Documented Rheumatoid Arthritis based on a diagnostic criteria of 1987 Revised ARA Criteria for the Classification of Rheumatoid Arthritis
3) Diagnosis of a typical active stage of RA: A patient is said to be on an active stage of RA if he or she has satisfied at least 4 of the following 5 items.
2) Patient who quitted the treatment for the ineffectiveness 7 days after the start of administration was included in the efficacy analysis. Patient who quitted the treatment for the side effects was not included in the efficacy analysis but the safety analyses.
1) The placebo run-in period: Seven days before administration, the selected patients stopped using NSAIDs and took a placebo instead.
4) For the double-blinded study, patients in both groups would be given capsules and tablets in same shapes, odors and amount. Placebo of capsule or tablet were included. Neither doctors nor patients can tell the group of treatment from the other.
5) No analgesics, anti-inflammation drugs, immune regulatory agents or muscle relaxants were allowed during the period of study. Acetaminophen could be used when necessary. If a physical therapy was started before enrollment, it was allowed to be continued, yet, it should be taken all the way during the period of clinical study.
1) Pain at rest: patients were asked to scale the degree of pain with a ruler [drawing 1]
2) Morning stiffness: Patients were requested to make notes on duration of their morning joint stiffness, a time span from its appearance to recovery in minutes every morning. The doctors should evaluate their record sheets by questioning them. For example “Do you fell stiff in any of your joints? (today, these 2 days)” When get a “yes” in answer, then “when did you get up today?” and “when does the stiffness be gone?”
3) Swelling of joints: Take count of the index of joint swelling by summing up the degree number of each joint.
0=normal; 1=swelling soft tissues (synovium) without hydrarthrus; 2=swelling soft tissues (synovium) with hydrarthrus.
4) Tenderness of joints: Take count of the index of joint tenderness by summing up the degree number of each joint:
5) Grip strength: Fold the arm belt of a sphygmomanometer twice and seal it in a small cloth bag suitable for a hand to hold. Aerates the belt in pressure of 20 mm Hg. Patients were asked to grip the bag with their not braced left and right hand, the grip strength is the average pressures in mm Hg for three times.
6) Time consumed for a 15 meters' walk (Seconds): Time started from a calm standing to the final of 15 meters. The average of three times.
7) General joint function (criteria of ARA):
8) Self-scoring and physician's grading on disease conditions: Both patients and doctors were required to submit their score sheet every time on follow-up survey. The scoring was made upon following criteria:
9) Patient's general condition: condition on the physical strength, sleep and appetite.
No effect: less than 30% improvement in symptoms and physical signs.
Improved: About 50% improvement in symptoms and physical signs (including general conditions in physical strength, sleep and appetite).

[1] = double blind, n = 60 per group, 4 weeks
[2] = double blind, n = 60 per group, 8 weeks
[3] = double blind, n = 60 per group, 12 weeks

CN(Cc1cnc2nc(N)nc(N)c2n1)c1ccc(C(=O)N[C@@H](CCC(=O)O)C(=O)O)cc1 [MTX, Methotrexate]
Effective rate (4 weeks): 47.2% | Overall effectiveness: Improved, % of patients (4 weeks): 36.6% | Overall effectiveness: Improved, number of patient (4 weeks): 52 | Overall effectiveness: No effect, % of patients (4 weeks): 52.8% | Overall effectiveness: No effect, number of patient (4 weeks): 75 | Overall effectiveness: Obv. improved, % of patients (4 weeks): 10.6% | Overall effectiveness: Obv. improved, number of patient (4 weeks): 15 | Effective rate (8 weeks): 64.8% | Overall effectiveness: Improved, % of patients (8 weeks): 31.7% | Overall effectiveness: Improved, number of patient (8 weeks): 45 | Overall effectiveness: No effect, % of patients (8 weeks): 35.2% | Overall effectiveness: No effect, number of patient (8 weeks): 50 | Overall effectiveness: Obv. improved, % of patients (8 weeks): 33.1% | Overall effectiveness: Obv. improved, number of patient (8 weeks): 47 | Effective rate (12 weeks): 77.5% | Overall effectiveness: Improved, % of patients (12 weeks): 28.9% | Overall effectiveness: Improved, number of patient (12 weeks): 41 | Overall effectiveness: No effect, % of patients (12 weeks): 22.5% | Overall effectiveness: No effect, number of patient (12 weeks): 32 | Overall effectiveness: Obv. improved, % of patients (12 weeks): 48.6% | Overall effectiveness: Obv. improved, number of patient (12 weeks): 69 | Effective rate (24 weeks): 81.7% | Overall effectiveness: Improved, % of patients (24 weeks): 10.0% | Overall effectiveness: Improved, number of patient (24 weeks): 6 | Overall effectiveness: No effect, % of patients (24 weeks): 18.3% | Overall effectiveness: No effect, number of patient (24 weeks): 11 | Overall effectiveness: Obv. improved, % of patients (24 weeks): 71.7% | Overall effectiveness: Obv. improved, number of patient (24 weeks): 43 | Changes in RA perimeters: GS-L (double blind, 4 weeks, mean): 12.70 | Changes in RA perimeters: GS-R (double blind, 4 weeks, mean): 12.05 | Changes in RA perimeters: ISJ (double blind, 4 weeks, mean): 2.47 | Changes in RA perimeters: ITJ (double blind, 4 weeks, mean): 6.83 | Changes in RA perimeters: MR (double blind, 4 weeks, mean): 33.52 | Changes in RA perimeters: NSJ (double blind, 4 weeks, mean): 1.92 | Changes in RA perimeters: NTJ (double blind, 4 weeks, mean): 3.53 | Changes in RA perimeters: PR (double blind, 4 weeks, mean): 1.33 | Changes in RA perimeters: GS-L (double blind, 8 weeks, mean): 17.55 | Changes in RA perimeters: GS-R (double blind, 8 weeks, mean): 16.68 | Changes in RA perimeters: ISJ (double blind, 8 weeks, mean): 4.03 | Changes in RA perimeters: ITJ (double blind, 8 weeks, mean): 9.53 | Changes in RA perimeters: MR (double blind, 8 weeks, mean): 41.03 | Changes in RA perimeters: NSJ (double blind, 8 weeks, mean): 2.97 | Changes in RA perimeters: NTJ (double blind, 8 weeks, mean): 5.52 | Changes in RA perimeters: PR (double blind, 8 weeks, mean): 1.94 | Changes in RA perimeters: GS, L (double blind, 12 weeks, mean): 22.03 | Changes in RA perimeters: GS, R (double blind, 12 weeks, mean): 21.85 | Changes in RA perimeters: ITJ (double blind, 12 weeks, mean): 11.59 | Changes in RA perimeters: MR (double blind, 12 weeks, mean): 46.08 | Changes in RA perimeters: NSJ (double blind, 12 weeks, mean): 3.92 | Changes in RA perimeters: NTJ (double blind, 12 weeks, mean): 6.73 | Changes in RA perimeters: PR (double blind, 12 weeks, mean): 2.60 | Changes in RA perimeters: TSJ (double blind, 12 weeks, mean): 5.08 | Effective rate [1]: 43.3% | Improved, % of patients [1]: (31.7%) | Improved, number of patients [1]: 19 | No effect, % of patients [1]: (56.7%) | No effect, number of patients [1]: 34 | Obviously improved, % of patients [1]: (11.7%) | Obviously improved, number of patients [1]: 7 | Effective rate [2]: 66.7% | Improved, % of patients [2]: (31.7%) | Improved, number of patients [2]: 19 | No effect, % of patients [2]: (33.3%) | No effect, number of patients [2]: 20 | Obviously improved, % of patients [2]: (35.0%) | Obviously improved, number of patients [2]: 21 | Effective rate [3]: 75.0% | Improved, % of patients [3]: (26.7%) | Improved, number of patients [3]: 16 | No effect, % of patients [3]: (25.0%)
